Results published in patent US11246314B2, “Trichome and pistil maturing formulation” (priority 2015, dated 2022).

Columns and labels:
Type in all cases: in vivo
Settings in all cases: in words
[1] = test system: trichomes of Cannabis plants; assay: Trichome maturation on sprayed Cannabis plants
Source text: (§1) Trials were done with sesame oil alone, in place of bud finisher and bud shield embodiments.
(§2) Add all ingredients to a gallon of water 7. Shake or mix well. Pour the final mixture 8 through a double mesh screen 41, into a convenient applicator such as a spray bottle 9 shown in FIG. 6. Apply directly to plants 10 over and under the leaves and flowers and upon the soil. Plant foliage should be sprayed on all surfaces until the solution is dripping off. Spray every 1-7 days as preferred as illustrated in FIG. 7.

[2] = test system: pistils of Cannabis plants; assay: Pistil maturation on sprayed Cannabis plants
Source text: as §1, §2

powdery mildew = assay: Control of powdery mildew, mold and mildew on plants
Source text: as §1

SMILES: O=C([O-])O.[K+] [Potassium bicarbonate]
- effect on trichome maturation [1]: little to no effect
- effect on pistil maturation [2]: fully matures pistils quickly
- efficacy against powdery mildew / mold and mildew (powdery mildew): very effective
